Assay results taken from patent US12509463B2, “JAK inhibitor and preparation method therefor” (FELICAMED BIOTECHNOLOGY CO., LTD., priority 2019, dated 2025).
pIC50: −log10 of the molar value.

What was measured:
[1] = system: pruritus caused by atopic dermatitis; settings: dogs, cited from earlier work
Canine PBMC cells = test: IL-2 and ConA induced proliferation of canine PBMC cells (flow cytometry, CD4+ population); type: cell-based; settings: Canis lupus familiaris, CFSE stained, IL-2 and concanavalin A, 120 h, MFI of CD4+ population, read-out: Cell IC50
Description: Recombinant canine IL-2 (Cys147Ser) protein was purchased from R&D (Cat #1815-CL-020/CF). Canine CD4 Alexa Fluor 647-conjugated antibody was purchased from R&D […] A from Canavalia ensiformis (Jack bean) was purchased from Sigma (Cat #C5275-5MG). Oclacitinib maleate was purchased from AbMole Bioscience (Cat #M5827). PBMC cells were purchased from AllCells (Cat #DPB-002).
Flow cytometry is a technology used for detecting and measuring physical and chemical characteristics of populations of cells or particles. Canine PBMC was collected and stained with CFSE, and then the cells (1×10*5 cells/well) were inoculated onto a 96-well plate and incubated for 1 h in a 5% CO2 incubator at 37° C. […] Afterwards, cells were collected and stained with canine CD4 Alexa Fluor 647-conjugated antibodies.
Samples containing cells were resuspended by a staining buffer and injected into a flow cytometry. […] When cells passed through laser beam, a detector detected the scattered light of the cells or particles. The front detector detected forward scatter (FS), multiple detectors placed on the side detected side scatter (SS); and a fluorescence detector detected fluorescence emitted by the stained cells or particles. […]
CD4^+ was circled from lymphocyte populations. MFI of the CD4^+ population was calculated. […]

JAK1 = molecular target: T1, JAK1 (Homo sapiens, UniProt P23458); test: JAK1 enzymology experiment (HTRF KinEASE-TK); type: biochemical; settings: JAK1 enzyme activity, 10 uM ATP, 19.76 nM JAk1, 30 min at 25° C., HTRF 665/615; read-out: Relative IC50
T1 construct: purchased Thermo PV4774
T1 sequence (P23458 866-1154 limits assumed): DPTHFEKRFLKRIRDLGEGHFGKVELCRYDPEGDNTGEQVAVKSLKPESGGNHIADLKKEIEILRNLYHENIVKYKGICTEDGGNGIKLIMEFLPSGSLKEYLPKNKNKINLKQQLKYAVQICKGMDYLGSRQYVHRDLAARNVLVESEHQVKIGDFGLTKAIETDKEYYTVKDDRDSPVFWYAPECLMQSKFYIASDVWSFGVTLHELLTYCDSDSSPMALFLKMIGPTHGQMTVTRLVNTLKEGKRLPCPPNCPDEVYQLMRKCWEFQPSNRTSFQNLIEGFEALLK
Description: JAK1 is a protein tyrosine kinase, and purchased from Thermo (Cat #PV4774). ATP was purchased from Thermo […] was purchased from Selleck (Cat #55001), and HTRF KinEASE-TK kit was purchased from Cisbio (Cat #62TKOPEC).
HTRF®KinEASE™-TK was a universal method to measure activity of tyrosine kinase by a substrate and a universal detection system. The reaction was performed in a 384-well plate (Greiner, Cat #784075), and the total reaction system was 20 ul. The reaction system mainly included a 1× kinase buffer solution, 5 mM MgCl2, 0.625 mM EGTA, 0.06 uM SEB, 1 mM DTT, 0.01% Brij-35, 1 uM TK-Sub-biotin and 10 uM ATP. The compounds prepared in Examples 1-8 and the control compound Oclacitinib were continuously diluted by DMSO to 10 concentration points, and then 100 nl was transferred to a test plate. After 19.76 nM JAk1 was added, the reaction started, 30 min after reaction at 25° C., a detection reagent was added to terminate the reaction (0.25×TK Antibody, 62.5 nM Streptavidin-XL665). After standing for 60 min at room temperature, FRET signal was read out on a Spark 10M or an envision plate reader. (HTRF 665/615=665 nm signal value/615 nm signal value).
665/615 signal ratio was converted to percentage inhibition. […]

pIC50 (JAK1): 7.89
SMILES: CNS(=O)(=O)C[C@H]1CC[C@H](N(C)c2ncnc3[nH]ccc23)CC1 [Oclacitinib]
laboratory animals with more than 50% pruritus reaction relieved ([1]; on the 7th day of treatment): exceeding 70%
time to relieve itching ([1]; oral 0.4-0.6 mg/kg twice a day): ≤ 24 h
treatment of pruritus caused by atopic dermatitis ([1]; oral 0.4-0.6 mg/kg twice a day): safe and effective
pIC50 (Canine PBMC cells): 6.35
